Laboratory results reported in US20230250096A1, “SUBSTITUTED PHENYL-1H-PYRROLO[2,3-c] PYRIDINE DERIVATIVES” (Janssen Pharmaceutica NV, priority 2021, published 2023).

What was measured:
[1] = system: MEIS1 mRNA expression; test: MEIS1 mRNA expression assay (Quantigene Singleplex) in MOLM14 cells; format: cell-based, human; settings: 48 hours incubation
Outline: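 MOLM14 cells, 3,750/well, exposed to increasing compound concentrations for 48 h. MEIS1 mRNA measured by QuantiGene Singleplex branched-DNA hybridization (lysis 45 min, hybridization 18–22 h, both 55 °C), normalized to RPL28. IC50 fitted to background-corrected fold change versus DMSO.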

[2] = biological target: T1, menin/MLL (terbium chelate-labeled menin, FITC-MBM1 peptide) (Homo sapiens, UniProt O00255, T541A); test: Menin/MLL homogenous time-resolved fluorescence (HTRF) assay; format: binding; settings: 30 min incubation
T1 construct: Menin (a.a 1-610-6xhis tag, 2.3 mg/mL in 20 mM Hepes)
T1 sequence (O00255 with tags, fused parts or gaps T541A): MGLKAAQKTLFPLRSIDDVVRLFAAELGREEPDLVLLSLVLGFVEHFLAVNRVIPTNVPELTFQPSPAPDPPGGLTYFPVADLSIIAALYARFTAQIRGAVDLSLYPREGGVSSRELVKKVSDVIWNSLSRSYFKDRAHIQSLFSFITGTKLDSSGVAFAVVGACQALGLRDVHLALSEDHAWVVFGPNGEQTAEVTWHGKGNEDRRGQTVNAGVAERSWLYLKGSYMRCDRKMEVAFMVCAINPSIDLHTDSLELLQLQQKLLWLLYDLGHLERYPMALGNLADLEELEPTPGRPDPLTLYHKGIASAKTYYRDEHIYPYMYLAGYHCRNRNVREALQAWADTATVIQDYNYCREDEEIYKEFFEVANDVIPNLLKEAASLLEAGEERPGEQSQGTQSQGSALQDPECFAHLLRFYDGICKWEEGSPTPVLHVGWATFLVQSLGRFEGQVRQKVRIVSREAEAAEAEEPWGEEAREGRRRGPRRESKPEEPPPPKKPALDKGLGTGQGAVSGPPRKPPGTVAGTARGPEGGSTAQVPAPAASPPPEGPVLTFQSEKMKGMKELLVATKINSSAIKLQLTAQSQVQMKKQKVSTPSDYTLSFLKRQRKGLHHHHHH
Outline: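 Terbium-labeled menin (a.a. 1-610, His-tagged; […]) pre-incubated 30 min with compound, then 75 nM FITC-MBM1 peptide added for 15 min at ambient temperature in Tris pH 7.5 buffer, 0.5% DMSO. HTRF 520/490 nm ratio read; IC50 from 11-point four-fold titrations, typically from 10 μM.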

| IC50 ([1]; Homo sapiens, MOLM-14, 48 h) [nM] | IC50 [2] [nM] | IC50 [1] [nM] | SMILES |
| --- | --- | --- | --- |
| 7 | ~0.056 | – | Cc1cncc2c1c(C[C@H]1CCN(CC3CCN(C(=O)C4CC4)CC3)C1)cn2-c1ccc(F)cc1C(=O)N(C)C(C)C (single isomer, unassigned) [Compound 135] |
| 107 | 0.055 | – | CC(=O)N1C[C@@H]2CN([C@H]3C[C@@H](C(C)N4CC[C@@H](Cc5cn(-c6ccc(F)cc6C(=O)N(C)C(C)C)c6cncc(C)c56)C4)C3)C[C@H]2C1 (mixture of isomers) [Compound 28] |
| 29 | 0.117 | – | Cc1cncc2c1c(C[C@@H]1CCN(CC3CCN(C(=O)C(C)C)CC3)C1)cn2-c1ccc(F)cc1C(=O)N(C[C@@H](C)O)C(C)C [Compound 331] |
| 26 | 0.034 | – | Cc1cncc2c1c(CC1CN(CC3CCOC3)C1)cn2-c1ccc(F)cc1C(=O)N(C)C(C)C (stereo not drawn) [Compound 287] |
| > 1000 | 1.94 | – | CC(=O)N1CCC(CN2CC[C@@H](Cc3cn(-c4ccc(F)cc4C(=O)NC(C)C)c4cncc(C)c34)C2)CC1 [Compound 238] |
| 173 | 0.084 | – | CNC(=O)[C@H]1CC[C@@H](CN2CC(Cc3cn(-c4ccc(F)cc4C(=O)N(C)C(C)C)c4cncc(C)c34)C2)CC1 [Compound 241] |
| – | 0.988 | > 1000 | Cc1cncc2c1c(CC1CNC(CC3CCOCC3)C1)cn2-c1ccc(F)cc1C(=O)N(C)C(C)C (single isomer, unassigned) [Compound 134b] |
| 114 | 0.156 | – | Cc1cncc2c1c(C[C@H]1CCN(CC3CCS(=O)(=O)CC3)C1)cn2-c1ccc(F)cc1C(=O)N(C)C(C)C (single isomer, unassigned) [Compound 124] |
| ~2300 | 1.63 | – | Cc1cncc2c1c(CC1CN([C@@H](C)C3CCS(=O)(=O)CC3)C1)cn2-c1ccc(F)cc1C(=O)N(C)C(C)C (single isomer, unassigned) [Compound 213b] |
| 70 | 0.051 | – | CCC(CCCN1C[C@H]2CN(C(C)=O)C[C@@H]2C1)N1CC[C@@H](Cc2cn(-c3ccc(F)cc3C(=O)N(C)C(C)C)c3cncc(C)c23)C1 (mixture of isomers) [Compound 16] |
| 35 | 0.102 | – | Cc1cncc2c1c(C[C@@H]1CCN(CC3CCOCC3)C1)cn2-c1ccc(F)cc1C(=O)N(C[C@@H](C)O)C(C)C (single isomer, unassigned) [Compound 365a] |
| 3690 | 4.57 | – | Cc1cncc2c1c(CC1CN(CC(=O)N3CCC(F)(F)C3)C1)cn2-c1ccc(F)cc1C(=O)N(C)C(C)C [Compound 96] |
| 345 | 0.555 | – | CC(=O)N1CC[C@@H](CN2CCC(Cc3cn(-c4ccc(F)cc4C(=O)N(C)C(C)C)c4cncc(C)c34)CC2)C1 [Compound 112] |
| 431 | 0.349 | – | Cc1cncc2c1c(CC1CN(CC3CCOCC3)C1)cn2-c1ccc(F)cc1C(=O)N1CCC12COC2 [Compound 266] |
| 444 | 0.119 | – | Cc1cncc2c1c(C[C@@H]1CCN(C3CCNC(=O)CC3)C1)cn2-c1ccc(F)cc1C(=O)N(C)C(C)C (mixture of isomers) [Compound 139] |
| – | 0.546 | 669 | CN=S(=O)(c1cc(F)ccc1-n1cc(CC2CCN(CC3CCOCC3)C2)c2c(C)cncc21)C(C)C (single isomer, unassigned) [Compound 77c] |
| 44 | ~7.3 | – | CC(=O)N1CCN(CCC[C@@H](C(C)C)N2CC[C@@H](Cc3cn(-c4ccc(F)cc4C(=O)N(C)C(C)C)c4cncc(C)c34)C2)CC1 (single isomer, unassigned) [Compound 8b] |
| 1380 | 0.22 | – | COC1CC(C)N(C(=O)c2cc(F)ccc2-n2cc(C[C@@H]3CCN(CC4CCN(C(C)=O)CC4)C3)c3c(C)cncc32)C1 (stereo partly drawn) [Compound 318] |

| IC50 ([1]; Homo sapiens, MOLM-14, 48 h) [nM] | IC50 [2] [nM] | IC50 [1] [nM] | SMILES |
| --- | --- | --- | --- |
| 288 | 0.368 | – | Cc1cncc2c1c(CC1CN(CC3CCOCC3)C1)cn2-c1ccc(F)cc1C(=O)N1CCC(O)C1C (stereo not drawn) [Compound 271] |
| 21 | 0.039 | – | Cc1cncc2c1c(C[C@@H]1CCN(CC3(C)CCN(C(N)=O)CC3)C1)cn2-c1ccc(F)cc1C(=O)N(C)C(C)C [Compound 217] |
| 48 | 0.094 | – | Cc1cncc2c1c(C[C@H]1CCN(CC3(C)CCN(C(N)=O)CC3)C1)cn2-c1ccc(F)cc1C(=O)N(C)C(C)C [Compound 218] |
| – | 0.152 | 259 | CC(=O)N1CCC(N2CC(Cc3cn(-c4ccc(F)cc4C(=O)N(C)C(C)C)c4cncc(C)c34)C2)C[C@@H]1C (single isomer, unassigned) [Compound 293b] |
| ~127 | 0.391 | – | CC(=O)N1CCC[C@H](CN2CC(Cc3cn(-c4ccc(F)cc4C(=O)N(C)C(C)C)c4cncc(C)c34)C2)C1 (single isomer, unassigned) [Compound 90a] |
| – | ~0.34 | 43 | CC(=O)N1CCC(N2CC[C@H](Cc3cn(-c4ccc(F)cc4C(=O)N(C)C(C)C)c4cncc(C)c34)C2)C(C)C1 (single isomer, unassigned) [Compound 137b] |
| > 1000 | 60.2 | – | Cc1noc(CN2CC(Cc3cn(-c4ccc(F)cc4C(=O)N(C)C(C)C)c4cncc(C)c34)C2)n1 [Compound 308] |
| > 1000 | 4.02 | – | CC(=O)N1CCC(CN2CCCC(Cc3cn(-c4ccc(F)cc4C(=O)N(C)C(C)C)c4cncc(C)c34)CC2)CC1 (stereo not drawn) [Compound 160] |
| 100 | 0.187 | – | CC(=O)N1CCCC(N2CC[C@@H](Cc3cn(-c4ccc(F)cc4C(=O)N(C)C(C)C)c4cncc(C)c34)C2)CC1 (mixture of isomers) [Compound 216] |
| > 1000 | 0.201 | – | Cc1cncc2c1c(C[C@@H]1CCN([C@H](CCC3OCCO3)C(C)C)C1)cn2-c1ccc(F)cc1C(=O)N(C)C(C)C (single isomer, unassigned) [Compound 367] |
| 19 | 0.038 | – | CC[C@H]([C@H]1C[C@H](N2C[C@H]3CN(C(C)=O)C[C@@H]3C2)C1)N1CC[C@H](Cc2cn(-c3ccc(F)cc3C(=O)N(C)C(C)C)c3cncc(Cl)c23)C1 (single isomer, unassigned) [Compound 27b] |
| > 1000 | 5.45 | – | CC(=O)N1CCC([C@H](C)N2CC[C@@H](Cc3cn(-c4ccc(F)cc4[S@](=N)(=O)C(C)C)c4cncc(C)c34)C2)CC1 (single isomer, unassigned) [Compound 230b] |
| 42 | 0.975 | – | CC(=O)N1CCN(CCC[C@@H](C(C)C)N2CC[C@H](Cc3cn(-c4ccc(F)cc4C(=O)N(C)C(C)C)c4cncc(C)c34)C2)CC1 (single isomer, unassigned) [Compound 9b] |
| ~319 | 0.067 | – | Cc1cncc2c1c(CC1CCN(C(CCC3OCCO3)C(C)C)C1)cn2-c1ccc(F)cc1C(=O)N(C)C(C)C (single isomer, unassigned) [Compound 366] |
| > 1000 | 2.77 | – | CC(=O)N1CCC(CN2CC[C@H](Cc3cn(-c4ccc(F)cc4[S@]4(=O)=NCCC4)c4cncc(C)c34)C2)CC1 (single isomer, unassigned) [Compound 224b] |
| 10 | 0.102 | – | CCN(C(=O)c1cc(F)ccc1-n1cc(C[C@@H]2CCN(CC3CCN(C(C)=O)CC3)C2)c2c(C)cncc21)C(C)C [Compound 255] |
| 62 | 0.104 | – | CC(=O)N1CCC(CN2CC[C@@H](Cc3cn(-c4ccc(F)cc4C(=O)N(C[C@H](C)O)C(C)C)c4cncc(C)c34)C2)CC1 (single isomer, unassigned) [Compound 320b] |
| ~573 | 1.21 | – | CC(=O)N1CCC(CN2C[C@H](Cc3cn(-c4ccc(F)cc4C(=O)N(C)C(C)C)c4cncc(C)c34)C[C@@H]2C)CC1 [Compound 132] |
